Measured values reported in patent US8314255B2, “Use of phthalimide and/or sulphonamide derivatives in the treatment of diseases which require reducing the TNF- α levels and an exogenous source of nitric oxide, phthalimide derivatives, sulphonamide derivatives, and a method for obtaining a sulphonamide derivative” (priority 2007, dated 2012).
Values joined by “and” are separate entries in the source; they are usually repeats but may differ in a detail not shown here. Equal values may be shown once.

How the values were obtained:
[1] = tested on: Salmonella typhimurium TA100; assay: AMES test, mutagenic evaluation in Salmonella typhimurium TA100 strain with/without metabolic activation (S9); format: cell-based
Method: The procedure was firstly developed by (MARON, D. M. and AMES, B. N. Mut. Res. v. 113, pp. 173-215, 1983)
For this assay, Salmonella typhimurium TA100 and TA102 strains from the mutagenicity laboratory of the “Faculdade de Ciências Farmacêuticas—UNESP Araraquara” were used. Such strains have the following characteristics: (AMES, 1983)
The positive controls are mutagenic compounds specific for each strain and test condition, with 25 μL/plate of sodium azide (1.25 μg/plate) and 100 μL of mitomycin (0.5 μg/plate) being the controls for TA100 and TA102, respectively, in the absence of metabolic activation. For assays with metabolic activation, the positive control for TA100 is 50 μL 2-antramine (1.25 μg/plate) and for TA102 it is 50 μL 2-aminofluorene (1.25 μg/plate).
The preincubation method was used.
In laminar flow, Salmonella typhimurium (TA100 and TA 102) strains were inoculated individually with a platinum loop, in the respective nutrient broths and maintained at 37° C., under constant stirring (160 rpm) during 14 hours, in order to achieve a density of 1 to 2×10^9 bacteria/mL.
Different concentrations of the compounds were added into 100 μL of 0.2M phosphate buffer pH 7.4 (or 500 μL of the mixture S9 in metabolic activation assays) and incubated for 20-30 minutes at 37° C. Solutions containing the compounds had DMSO as the solvent. Thereafter, 2 mL of top agar supplemented with traces of histidine and biotin was added, homogenized and plated in glycosylated minimum medium. After solidification of the top agar, the plates were incubated for 48 hours at a 37° C. Then, the counting of the number of revertant colonies per plate was performed. All tested concentrations, positive and negative controls were run in triplicate.
After 48 hours, the revertant colonies were counted manually, and the protoCOL Colony Counter Version 3.15.630 (1998-2001) SYNBIOSIS LTD system was used for the positive control.
The final data obtained from the assay was analyzed using the statistical software Salanal (Salmonella Assay Analysis) version 1.0 from the Research Triangle Institute, RTP, North Carolina, USA. Such software allows the dose-response effect to be evaluated by means of analysis of variance (ANOVA-test F) computations between the measurement of the number of revertants at the different tested concentrations (doses) and the negative control, followed by a linear regression. The software model chosen for analyzing the data was Bernstein's (BERNSTEIN, L. et al. Mutat. Res. v. 97, p. 267-281, 1982). The slope of the straight line from the linear portion of the dose-response curve is also provided by this software and corresponds to the number of revertants induced per measurement unit of the analyzed sample.
From the results, the mutagenicity ratio (MR) was computed for each analyzed dose from each compound. MR is given by the following equation:
MR=average number of revertants per test plate (spontaneous+induced revertants) […] average number of revertants per plate of the negative control (spontaneous revertants)
The spontaneous growing means that the number of revertants which developed on the plate, regardless of being induced or not, wherein values higher or equal to 2 are considered as a positive response (VALENT, G. V. et al. Env. Toxicol. Water Quality. v. 8, p. 371-381, 1993).
The mutagenicity test with metabolic activation system was performed with a microsomal fraction S9 (S9 mix) prepared from a liver homogenizate from Sprague Dawley rats, previously treated with Aroclor 1254, acquired in the freeze-dried form.
The procedure for this assay is the same, however, instead of the buffer, 500 μL of the S9 mixture should be added.
The S9 mixture has a viability of 4 hours from preparation when put on ice. The plates are then incubated for 48 hours at 37° C. After the required time has elapsed, the counting of the revertant colonies was carried out. All tested concentrations, positive and negative controls were run in triplicate.

[2] = tested on: leukocyte infiltration, peritonitis induced by thioglycolate; assay: Peritonitis assay induced by 3% thioglycolate; format: in vivo; settings: 300 μMol/Kg orally, mouse, 3% thioglycolate i.p., 4 h
Method: In a second assay, the number of total leukocytes (10^6/mL) was evaluated in order to evaluate the ability to inhibit their infiltration in the inflammatory process.
The mice were treated with the substances being analyzed or carrier and after 1 h of oral administration, they were simultaneously subjected to the peritonitis assay, by administering intraperitoneally 1 ml of a 3% thioglycolate solution. 4 h after the administration of thioglycolate, the peritoneal cavity was washed with 3 ml of a HANKS solution (Balanced salt solution, free of Ca^2+ and Mg^2+). Next, the peritoneal wash was analyzed and the total counting of white blood cells was made in a Newbauer's chamber under an optical microscope with a 40× objective.

[3] = tested on: abdominal writhing induced by acetic acid; assay: Abdominal writhing assay induced by acetic acid; format: in vivo; settings: oral, mice, acetic acid 0.1N i.p. after 1 hour, writhings counted during 20 minutes
Method: In order to evaluate the peripheral analgesic activity of the compounds, an abdominal writhing assay induced by acetic acid (Table 6) was carried out. In this assay, we could infer that compound ID has an important analgesic activity, inhibiting abdominal writhing by 66%. […] The analgesic activity may be related to the ability of these compounds to inhibit the cytokine TNFα, since it is known that this would be one of the mechanisms that explain the analgesia of molecules such as thalidomide.
The antinociceptive profile was evaluated through the abdominal writhing assay induced by acetic acid in mice. In this assay, Swiss mice from both genders were used, weighing from 21 to 28 grams, fasted for a time period of about 8 hours. The test substance was administered orally and had, as a carrier, 5% gum arabic. After 1 hour, the administration of acetic acid 0.1N (0.1 mL/10 g weight) was performed in the peritoneal cavity of the animals. Ten minutes after the injection of acetic acid, writhings were counted during 20 minutes.

O=C1c2ccccc2C(=O)N1c1ccc(CO[N+](=O)[O-])cc1 [ID, 4-(1,3-dioxo-1,3-dihydro-2H-isoindol-2-yl)benzyl nitrate]
mutagenicity ratio (MR) ([1]; TA 100, +S9, 0.224 μmol/plate): 1.21
number of revertants per plate ([1]; TA 100, +S9, 0.224 μmol/plate): 157 ± 13 revertants/plate
mutagenicity ratio (MR) ([1]; TA 100, +S9, 0.488 μmol/plate): 1.42
number of revertants per plate ([1]; TA 100, +S9, 0.488 μmol/plate): 184.7 ± 16 revertants/plate
mutagenicity ratio (MR) ([1]; TA 100, +S9, 0.896 μmol/plate): 1.67
number of revertants per plate ([1]; TA 100, +S9, 0.896 μmol/plate): 216.7 ± 18 revertants/plate
mutagenicity ratio (MR) ([1]; TA 100, +S9, 1.8 μmol/plate): 1.49
number of revertants per plate ([1]; TA 100, +S9, 1.8 μmol/plate): 192.7 ± 16 revertants/plate
mutagenicity ratio (MR) ([1]; TA 100, +S9, 3.58 μmol/plate): 2.03
number of revertants per plate ([1]; TA 100, +S9, 3.58 μmol/plate): 263 ± 12.3 revertants/plate
mutagenicity ratio (MR) ([1]; TA 100, −S9, 0.224 μmol/plate): 1.27
number of revertants per plate ([1]; TA 100, −S9, 0.224 μmol/plate): 228 ± 18 revertants/plate
mutagenicity ratio (MR) ([1]; TA 100, −S9, 0.488 μmol/plate): 1.33
number of revertants per plate ([1]; TA 100, −S9, 0.488 μmol/plate): 239 ± 11.5 revertants/plate
mutagenicity ratio (MR) ([1]; TA 100, −S9, 0.896 μmol/plate): 1.29
number of revertants per plate ([1]; TA 100, −S9, 0.896 μmol/plate): 231 ± 20.2 revertants/plate
mutagenicity ratio (MR) ([1]; TA 100, −S9, 1.8 μmol/plate): 1.18
number of revertants per plate ([1]; TA 100, −S9, 1.8 μmol/plate): 212.3 ± 17 revertants/plate
mutagenicity ratio (MR) ([1]; TA 100, −S9, 3.58 μmol/plate): 1.94
number of revertants per plate ([1]; TA 100, −S9, 3.58 μmol/plate): 349 ± 5.6 revertants/plate
Cell Number avg (×106), total leukocytes [2]: 3.8 ×106
Inhibition % (leukocyte infiltrate) [2]: 32.14%
Average (abdominal writhings) [3]: 16.2
Inhibition % (abdominal writhing) [3]: 66% and 66.03%
